# From US9326506B2, “Preparation method, agricultural composition and applications of natural brassinolide analogs” (CHENGDU NEWSUN CROPSCIENCE CO., LTD, priority 2012, dated 2016)
# System: rice
# Experiment: Low temperature assay on rice seedlings
# Type: in vivo
# How it was run: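 Nine-day-old etiolated rice seedlings (grown on water at 30 °C±2 °C, dark) immersed in brassinolide analogues at 1–0.0001 mg/L or pure water, held at 1–5 °C for 24 hr. Plant height, leaf area, root weight read at 3, 6, 9, 12 days; leaf and tiller number at 12 days.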
compound,measurement,setting,value
CC(C)C[C@@H](O)[C@H](O)[C@@H](C)[C@H]1CCC2C3CC(=O)C4C[C@H](O)[C@H](O)C[C@]4(C)C3CC[C@@]21C (some centres unmarked) [BR5],Height,"0.01 mg/l, 3 °C, 9 days",7.5 cm
same,Weight of root,"0.01 mg/l, 3 °C, 9 days",2.7 g
same,Area of leaf,"0.01 mg/l, 3 °C, 12 days",13.2 cm^2
same,Height,"0.01 mg/l, 3 °C, 12 days",7.9 cm
same,Number of leaf,"0.01 mg/l, 3 °C, 12 days",3
same,Number of tiller,"0.01 mg/l, 3 °C, 12 days",2
same,Weight of root,"0.01 mg/l, 3 °C, 12 days",2.9 g
same,Area of leaf,"0.01 mg/l, 4 °C, 3 days",10.8 cm^2
same,Height,"0.01 mg/l, 4 °C, 3 days",7.1 cm
same,Weight of root,"0.01 mg/l, 4 °C, 3 days",2.5 g
same,Area of leaf,"0.01 mg/l, 4 °C, 6 days",12.4 cm^2
same,Height,"0.01 mg/l, 4 °C, 6 days",7.5 cm
same,Weight of root,"0.01 mg/l, 4 °C, 6 days",2.6 g
same,Area of leaf,"0.01 mg/l, 4 °C, 9 days",13.1 cm^2
same,Height,"0.01 mg/l, 4 °C, 9 days",7.6 cm
same,Weight of root,"0.01 mg/l, 4 °C, 9 days",2.9 g
same,Area of leaf,"0.01 mg/l, 4 °C, 12 days",13.5 cm^2
same,Height,"0.01 mg/l, 4 °C, 12 days",7.8 cm
same,Number of leaf,"0.01 mg/l, 4 °C, 12 days",3
same,Number of tiller,"0.01 mg/l, 4 °C, 12 days",2
same,Weight of root,"0.01 mg/l, 4 °C, 12 days",3.0 g
same,Area of leaf,"0.01 mg/l, 5 °C, 3 days",10.3 cm^2
same,Height,"0.01 mg/l, 5 °C, 3 days",7.4 cm
same,Weight of root,"0.01 mg/l, 5 °C, 3 days",2.8 g
same,Area of leaf,"0.01 mg/l, 5 °C, 6 days",13.1 cm^2
same,Height,"0.01 mg/l, 5 °C, 6 days",7.4 cm
same,Weight of root,"0.01 mg/l, 5 °C, 6 days",3.0 g
same,Area of leaf,"0.01 mg/l, 5 °C, 9 days",16.4 cm^2
same,Height,"0.01 mg/l, 5 °C, 9 days",8 cm
same,Weight of root,"0.01 mg/l, 5 °C, 9 days",3.4 g
same,Area of leaf,"0.01 mg/l, 5 °C, 12 days",17 cm^2
same,Height,"0.01 mg/l, 5 °C, 12 days",8.2 cm
same,Number of leaf,"0.01 mg/l, 5 °C, 12 days",4
same,Number of tiller,"0.01 mg/l, 5 °C, 12 days",3
same,Weight of root,"0.01 mg/l, 5 °C, 12 days",3.6 g
same,Area of leaf,"0.1 mg/l, 1 °C, 3 days",10.1 cm^2
same,Height,"0.1 mg/l, 1 °C, 3 days",7.0 cm
same,Weight of root,"0.1 mg/l, 1 °C, 3 days",2.8 g
same,Area of leaf,"0.1 mg/l, 1 °C, 6 days",11 cm^2
same,Height,"0.1 mg/l, 1 °C, 6 days",7.2 cm
same,Weight of root,"0.1 mg/l, 1 °C, 6 days",3.0 g
same,Area of leaf,"0.1 mg/l, 1 °C, 9 days",12 cm^2
same,Height,"0.1 mg/l, 1 °C, 9 days",7.2 cm
same,Weight of root,"0.1 mg/l, 1 °C, 9 days",3.4 g
same,Area of leaf,"0.1 mg/l, 1 °C, 12 days",13.4 cm^2
same,Height,"0.1 mg/l, 1 °C, 12 days",7.4 cm
same,Number of leaf,"0.1 mg/l, 1 °C, 12 days",3
same,Number of tiller,"0.1 mg/l, 1 °C, 12 days",3
same,Weight of root,"0.1 mg/l, 1 °C, 12 days",3.4 g
same,Area of leaf,"0.1 mg/l, 2 °C, 3 days",10.4 cm^2
same,Height,"0.1 mg/l, 2 °C, 3 days",7.1 cm
same,Weight of root,"0.1 mg/l, 2 °C, 3 days",2.8 g
same,Area of leaf,"0.1 mg/l, 2 °C, 6 days",11.2 cm^2
same,Height,"0.1 mg/l, 2 °C, 6 days",7.3 cm
same,Weight of root,"0.1 mg/l, 2 °C, 6 days",3.0 g
same,Area of leaf,"0.1 mg/l, 2 °C, 9 days",12.4 cm^2
same,Height,"0.1 mg/l, 2 °C, 9 days",7.3 cm
same,Weight of root,"0.1 mg/l, 2 °C, 9 days",3.1 g
same,Area of leaf,"0.1 mg/l, 2 °C, 12 days",13.6 cm^2
same,Height,"0.1 mg/l, 2 °C, 12 days",7.4 cm
same,Number of leaf,"0.1 mg/l, 2 °C, 12 days",3
same,Number of tiller,"0.1 mg/l, 2 °C, 12 days",3
same,Weight of root,"0.1 mg/l, 2 °C, 12 days",3.2 g
same,Area of leaf,"0.1 mg/l, 3 °C, 3 days",10.5 cm^2
same,Height,"0.1 mg/l, 3 °C, 3 days",7.4 cm
same,Weight of root,"0.1 mg/l, 3 °C, 3 days",2.5 g
same,Area of leaf,"0.1 mg/l, 3 °C, 6 days",12 cm^2
same,Height,"0.1 mg/l, 3 °C, 6 days",7.4 cm
same,Weight of root,"0.1 mg/l, 3 °C, 6 days",2.7 g
same,Area of leaf,"0.1 mg/l, 3 °C, 9 days",12.6 cm^2
same,Height,"0.1 mg/l, 3 °C, 9 days",7.9 cm
same,Weight of root,"0.1 mg/l, 3 °C, 9 days",2.7 g
same,Area of leaf,"0.1 mg/l, 3 °C, 12 days",13.4 cm^2
same,Height,"0.1 mg/l, 3 °C, 12 days",7.9 cm
same,Number of leaf,"0.1 mg/l, 3 °C, 12 days",3
same,Number of tiller,"0.1 mg/l, 3 °C, 12 days",2
same,Weight of root,"0.1 mg/l, 3 °C, 12 days",2.9 g
same,Area of leaf,"0.1 mg/l, 4 °C, 3 days",10.8 cm^2
same,Height,"0.1 mg/l, 4 °C, 3 days",7.5 cm
same,Weight of root,"0.1 mg/l, 4 °C, 3 days",2.5 g
same,Area of leaf,"0.1 mg/l, 4 °C, 6 days",12.1 cm^2
same,Height,"0.1 mg/l, 4 °C, 6 days",7.5 cm
same,Weight of root,"0.1 mg/l, 4 °C, 6 days",2.7 g
same,Area of leaf,"0.1 mg/l, 4 °C, 9 days",13.2 cm^2
same,Height,"0.1 mg/l, 4 °C, 9 days",8 cm
same,Weight of root,"0.1 mg/l, 4 °C, 9 days",2.9 g
same,Area of leaf,"0.1 mg/l, 4 °C, 12 days",13.8 cm^2
same,Height,"0.1 mg/l, 4 °C, 12 days",8 cm
same,Number of leaf,"0.1 mg/l, 4 °C, 12 days",3
same,Number of tiller,"0.1 mg/l, 4 °C, 12 days",2
same,Weight of root,"0.1 mg/l, 4 °C, 12 days",3 g
same,Area of leaf,"0.1 mg/l, 5 °C, 3 days",11 cm^2
same,Height,"0.1 mg/l, 5 °C, 3 days",7.5 cm
same,Weight of root,"0.1 mg/l, 5 °C, 3 days",2.9 g
same,Area of leaf,"0.1 mg/l, 5 °C, 6 days",12.9 cm^2
same,Height,"0.1 mg/l, 5 °C, 6 days",7.6 cm
same,Weight of root,"0.1 mg/l, 5 °C, 6 days",3.2 g
same,Area of leaf,"0.1 mg/l, 5 °C, 9 days",16.8 cm^2
same,Height,"0.1 mg/l, 5 °C, 9 days",8 cm
same,Weight of root,"0.1 mg/l, 5 °C, 9 days",3.5 g
same,Area of leaf,"0.1 mg/l, 5 °C, 12 days",19 cm^2
same,Height,"0.1 mg/l, 5 °C, 12 days",8.3 cm
same,Number of leaf,"0.1 mg/l, 5 °C, 12 days",3
same,Number of tiller,"0.1 mg/l, 5 °C, 12 days",2
same,Weight of root,"0.1 mg/l, 5 °C, 12 days",4.1 g
same,Area of leaf,"1 mg/l, 1 °C, 3 days",10 cm^2
same,Height,"1 mg/l, 1 °C, 3 days",7.0 cm
same,Weight of root,"1 mg/l, 1 °C, 3 days",2.6 g
same,Area of leaf,"1 mg/l, 1 °C, 6 days",11.2 cm^2
same,Height,"1 mg/l, 1 °C, 6 days",7.3 cm
same,Weight of root,"1 mg/l, 1 °C, 6 days",3.1 g
same,Area of leaf,"1 mg/l, 1 °C, 9 days",12.4 cm^2
same,Height,"1 mg/l, 1 °C, 9 days",7.3 cm
same,Weight of root,"1 mg/l, 1 °C, 9 days",3.1 g
same,Area of leaf,"1 mg/l, 1 °C, 12 days",13 cm^2
same,Height,"1 mg/l, 1 °C, 12 days",7.9 cm
same,Number of leaf,"1 mg/l, 1 °C, 12 days",3
same,Number of tiller,"1 mg/l, 1 °C, 12 days",3
same,Weight of root,"1 mg/l, 1 °C, 12 days",3.7 g
same,Area of leaf,"1 mg/l, 2 °C, 3 days",10.2 cm^2
same,Height,"1 mg/l, 2 °C, 3 days",7.1 cm
same,Weight of root,"1 mg/l, 2 °C, 3 days",2.6 g
same,Area of leaf,"1 mg/l, 2 °C, 6 days",11.7 cm^2
same,Height,"1 mg/l, 2 °C, 6 days",7.2 cm
same,Weight of root,"1 mg/l, 2 °C, 6 days",3.0 g
same,Area of leaf,"1 mg/l, 2 °C, 9 days",12.6 cm^2
same,Height,"1 mg/l, 2 °C, 9 days",7.2 cm
same,Weight of root,"1 mg/l, 2 °C, 9 days",3.2 g
same,Area of leaf,"1 mg/l, 2 °C, 12 days",12.8 cm^2
same,Height,"1 mg/l, 2 °C, 12 days",7.8 cm
same,Number of leaf,"1 mg/l, 2 °C, 12 days",3
same,Number of tiller,"1 mg/l, 2 °C, 12 days",3
same,Weight of root,"1 mg/l, 2 °C, 12 days",3.7 g
same,Area of leaf,"1 mg/l, 3 °C, 3 days",10.4 cm^2
same,Height,"1 mg/l, 3 °C, 3 days",7.2 cm
same,Weight of root,"1 mg/l, 3 °C, 3 days",2.5 g
same,Area of leaf,"1 mg/l, 3 °C, 6 days",12 cm^2
same,Height,"1 mg/l, 3 °C, 6 days",7.5 cm
same,Weight of root,"1 mg/l, 3 °C, 6 days",2.6 g
same,Area of leaf,"1 mg/l, 3 °C, 9 days",12.1 cm^2
same,Height,"1 mg/l, 3 °C, 9 days",7.6 cm
same,Weight of root,"1 mg/l, 3 °C, 9 days",2.8 g
same,Area of leaf,"1 mg/l, 3 °C, 12 days",13 cm^2
same,Height,"1 mg/l, 3 °C, 12 days",8.1 cm
same,Number of leaf,"1 mg/l, 3 °C, 12 days",3
same,Number of tiller,"1 mg/l, 3 °C, 12 days",2
same,Weight of root,"1 mg/l, 3 °C, 12 days",2.9 g
same,Area of leaf,"1 mg/l, 4 °C, 3 days",10.9 cm^2
same,Height,"1 mg/l, 4 °C, 3 days",7.2 cm
same,Weight of root,"1 mg/l, 4 °C, 3 days",2.5 g
same,Area of leaf,"1 mg/l, 4 °C, 6 days",12.6 cm^2
same,Height,"1 mg/l, 4 °C, 6 days",7.5 cm
same,Weight of root,"1 mg/l, 4 °C, 6 days",2.7 g
same,Area of leaf,"1 mg/l, 4 °C, 9 days",13.2 cm^2
same,Height,"1 mg/l, 4 °C, 9 days",7.8 cm
same,Weight of root,"1 mg/l, 4 °C, 9 days",3.1 g
same,Area of leaf,"1 mg/l, 4 °C, 12 days",13.4 cm^2
same,Height,"1 mg/l, 4 °C, 12 days",8.2 cm
same,Number of leaf,"1 mg/l, 4 °C, 12 days",3
same,Number of tiller,"1 mg/l, 4 °C, 12 days",2
same,Weight of root,"1 mg/l, 4 °C, 12 days",3.2 g
same,Area of leaf,"1 mg/l, 5 °C, 3 days",11.1 cm^2
same,Height,"1 mg/l, 5 °C, 3 days",7.3 cm
same,Weight of root,"1 mg/l, 5 °C, 3 days",2.9 g
same,Area of leaf,"1 mg/l, 5 °C, 6 days",13.1 cm^2
same,Height,"1 mg/l, 5 °C, 6 days",7.7 cm
same,Weight of root,"1 mg/l, 5 °C, 6 days",3.5 g
same,Area of leaf,"1 mg/l, 5 °C, 9 days",18 cm^2
same,Height,"1 mg/l, 5 °C, 9 days",8 cm
same,Weight of root,"1 mg/l, 5 °C, 9 days",3.6 g
same,Area of leaf,"1 mg/l, 5 °C, 12 days",20 cm^2
same,Height,"1 mg/l, 5 °C, 12 days",8.4 cm
same,Number of leaf,"1 mg/l, 5 °C, 12 days",3
same,Number of tiller,"1 mg/l, 5 °C, 12 days",2
same,Weight of root,"1 mg/l, 5 °C, 12 days",4.5 g
same,Effects on resistance to low temperature compared among analogues,in vivo,"more than those of BR2, BR3 and BR4"
